Among the data in PubChem BioAssay (NCI) are TGI and GI50 values, retold here.

Each structure is given as a SMILES string.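 Each compound was tested at five concentrations against cells in 96-well plates for 48 hours. GI50 marks 50% less growth. TGI is the concentration that stops growth completely.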

Holding throughout (assay): inhibition of tumour cell growth, NCI panel, 48 h
Experiment [1] concerns 786-0 renal.
Experiment [2] has as its system HCC-2998 colon.
The test system of experiment [3] is OVCAR-5 ovarian.
Experiment [4] deals with RPMI-8226 leukemia.
Experiment [5] relates to SK-MEL-5 melanoma.
The subject of experiment [6] is SR leukemia.
Experiment [7] relates to TK-10 renal.
The subject of experiment [8] is U251 CNS.
Experiment [9] has as its system UACC-257 melanoma.
The subject of experiment [10] is MCF7 breast.

On to `O=C(c1ccccc1)c1c(CC(O)c2ccncc2)n(C(=O)c2ccccc2)c2ccccc12` (stereo unspecified), for which the TGI in experiment [1] came out at 39.1 µM; in [2], 31.5 µM; in [3], 34.5 µM; in experiment [4], 46.1 µM; in experiment [5] it was 30.1 µM; in experiment [6] it was 39.5 µM. Besides, the TGI in [7] worked out at 75.2 µM; in experiment [8], 31.6 µM; in experiment [9], 32.9 µM.
In the case of `O=C(O)c1cc(CCc2cc(O)ccc2O)ccc1O`, the TGI in experiment [1], in [10], in experiment [3], in [4], in [5] and in experiment [6] was greater than 100 µM throughout. For the same molecule, the TGI in [7], in experiment [8] and in [9] was greater than 100 µM in each case.
Regarding `CCC(=O)Nc1ccc(N2C(=O)/C(=C/c3ccc(OC)cc3)N=C2c2ccccc2)cc1`, the GI50 is 16.5 µM in experiment [1]; 7.77 µM in experiment [10]; greater than 50 µM in [3]; 4.67 µM in [4]; 7.16 µM in [5]; 1.4 µM in experiment [6]. Moreover, the results for the GI50 in [7], in experiment [8] and in experiment [9] were 22.8 µM, 1.66 µM and 22.2 µM, respectively. Further, the TGI in experiment [1], in experiment [10], in experiment [3], in experiment [4], in [5] and in experiment [6] was greater than 50 µM in each case. In addition, the TGI in experiment [7] was greater than 50 µM; in experiment [8], 8.87 µM; in experiment [9], greater than 50 µM.
In the case of `N#CC1(C#N)C(c2ccccc2)C=CC12OCCCO2` (stereo unspecified), the TGI in experiment [1] is greater than 100 µM; in experiment [2] it was greater than 100 µM; in experiment [3] it was greater than 100 µM; in experiment [4] it was 91.7 µM; in [5], greater than 100 µM; in experiment [6] it was greater than 100 µM. Moreover, the TGI in experiment [7], in experiment [8] and in [9] was greater than 100 µM throughout.
In the case of `CC1=C(CC2C(=O)N(c3ccccc3)S(=O)(=O)NC2C)C(=O)N(c2ccccc2)S(=O)(=O)N1C` (stereo unspecified), the TGI in experiment [1], in experiment [2], in experiment [3], in experiment [4], in experiment [5] and in [6] was greater than 100 µM throughout. The molecule further had a TGI in [7] greater than 100 µM.
As to `COc1ccc(-c2[nH]c3ccccc3c2CCNS(=O)(=O)c2ccc(C)cc2)cc1`, the TGI in experiment [1], in [2], in experiment [3], in experiment [4], in experiment [5] and in [6] was greater than 10 µM throughout. The TGI in [7], in experiment [8] and in [9] was greater than 10 µM each time.
On to `COc1cc(/C=C/c2ccc3c(Br)cc(Br)c(O)c3n2)ccc1O`, for which the GI50 in experiment [1] was 1.69 µM; in [10], 1.53 µM; in experiment [3] it was 1.49 µM; in experiment [4], 1.21 µM; in experiment [5] it was 1.47 µM; in experiment [6] it was 0.476 µM. Besides, the GI50 in experiment [7] is 3.84 µM; in experiment [8] it was 0.636 µM; in [9], 7.61 µM. Moreover, the TGI stood at 6.93 µM in [1]; 12.5 µM in experiment [10]; 5.84 µM in [3]; 8.07 µM in experiment [4]; 10.3 µM in experiment [5]; 3.41 µM in [6]. Further, the figures for the TGI in [7], in experiment [8] and in experiment [9] were 15.5 µM, 10.9 µM and 22 µM, respectively.
As to `CN=C1OC2(c3ccccc3)C3=C(OC(=NC)N2C)C(=O)OC3(c2ccccc2)N1C` (stereo unspecified), the TGI in experiment [1], in experiment [2], in [10], in experiment [3], in experiment [5] and in experiment [6] was greater than 100 µM throughout. Besides, the TGI in experiment [7], in experiment [8] and in experiment [9] was greater than 100 µM in each case.
With `COc1ccc(NC(=O)C(=O)/C=C(\O)c2ccccc2)cc1`, the TGI was greater than 10 µM in [1]; greater than 10 µM in experiment [2]; greater than 10 µM in [10]; greater than 10 µM in experiment [4]; greater than 10 µM in [5]; 3.41 µM in experiment [6]. The TGI in experiment [7] and in experiment [9] was greater than 10 µM each time.
Take `COc1cc(-c2nn(-c3cccc(NC(=O)CCN4CCN(Cc5ccccc5)CC4)c3)cc2-c2ccncc2)ccc1Cl`: the GI50 was 1.33 µM in experiment [1]; 1.68 µM in [2]; 0.386 µM in [10]; 3.02 µM in experiment [3]; 1.1 µM in [5]; 0.393 µM in experiment [6]. The GI50 in experiment [7] is 2.93 µM; in [8], 0.839 µM; in experiment [9], 1.7 µM. The TGI is 3.02 µM in [1]; 3.82 µM in experiment [2]; 3.27 µM in experiment [10]; greater than 100 µM in experiment [3]; 2.31 µM in experiment [5]; 2.48 µM in experiment [6]. Besides, the TGI was 12.2 µM in experiment [7], 2.76 µM in [8] and 3.55 µM in [9].
Turning to `N#CCN1C(=O)c2cc([N+](=O)[O-])cc3cc([N+](=O)[O-])cc(c23)C1=O`, the TGI in experiment [1] was 42.8 µM; in experiment [2], 29.2 µM; in experiment [3], 36.1 µM; in experiment [4], greater than 38.3 µM; in [5], 29.8 µM; in experiment [6], 12.6 µM. The TGI was greater than 79.9 µM in experiment [7], greater than 55.6 µM in [8] and 28.6 µM in [9].
In the case of `ClC1=C(Cl)C(Cl)(Cl)c2c3c(c4c(c21)C(Cl)(Cl)C(Cl)=C4Cl)C(Cl)(Cl)C(Cl)=C3Cl`, the TGI in [1], in experiment [2], in [4], in [5], in experiment [6] and in [8] was greater than 100 µM each time. In [9], this molecule displayed a TGI greater than 100 µM.
For `c1cc(-c2cn3c(n2)SCC3)ccn1`, the TGI in [1] is 44.5 µM; in experiment [2] it was greater than 100 µM; in experiment [3], greater than 100 µM; in experiment [4], greater than 100 µM; in experiment [5] it was greater than 100 µM; in [6], greater than 100 µM. Besides, the TGI in experiment [7], in experiment [8] and in [9] was greater than 100 µM each time.
On to `Nc1n[nH]c2ccc([C@@H]3Nc4cc5c(cc4[C@H]4C6CCC(C6)[C@@H]34)C(=O)NC5)cc12` (stereo partly specified), for which the GI50 in [1] was 0.557 µM; in experiment [2], 0.362 µM; in experiment [10] it was 0.18 µM; in [3], 1.06 µM; in experiment [5], 0.232 µM; in experiment [6] it was 0.149 µM. The GI50 in experiment [7] was 70.1 µM; in experiment [8], 0.418 µM; in [9], greater than 100 µM. For the same molecule, the TGI in [1] is greater than 100 µM; in [2], greater than 41.5 µM; in experiment [10] it was greater than 100 µM; in experiment [3], greater than 100 µM; in [5] it was 0.612 µM; in [6] it was greater than 100 µM. Also, the TGI in [7], in experiment [8] and in [9] was greater than 100 µM in each case.
Take `CCOC(=O)/C(I)=C/c1cc(OC)c(OC)c(OC)c1`: the TGI in [1] is 33 µM; in experiment [2], 27.8 µM; in experiment [3], 20 µM; in [4] it was 21.1 µM; in experiment [5] it was 24.5 µM; in [6], 8.8 µM. For the same molecule, the TGI in experiment [7] amounted to 35.1 µM; in [8], 18.3 µM; in [9], 25.7 µM.
As for `Cc1ccc(C2C3Cc4ccccc4C3=NN2c2ccc(S(=O)(=O)/N=c3\scc(-c4ccccc4)n3-c3ccccc3)cc2)cc1` (stereo unspecified), the GI50 in experiment [1] was 32 µM; in [10], 5.71 µM; in experiment [4], 13.4 µM; in [5], 13.2 µM; in experiment [6], 11.1 µM; in [7], 19.1 µM. In addition, the results for the GI50 in [8] and in [9] were 18.7 µM and 20.4 µM, respectively. For the same molecule, the TGI in experiment [1] is greater than 100 µM; in experiment [10] it was 33.7 µM; in experiment [4], 35.6 µM; in experiment [5] it was 26 µM; in experiment [6], 24.5 µM; in experiment [7], 63.6 µM. Besides, the values for the TGI in experiment [8] and in experiment [9] were 37.8 µM and 43.3 µM, respectively.
As for `CN1CCc2nc3sc(C(N)=O)c(N)c3c(-c3cccs3)c2C1`, the GI50 was 4.41 µM in experiment [1]; 3.54 µM in experiment [2]; 4.1 µM in experiment [10]; 4.41 µM in [4]; 1.43 µM in [5]; 1.8 µM in experiment [6]. The GI50 in [7] was 3.32 µM; in experiment [8], 3.18 µM; in [9], 4 µM. Also, the TGI in experiment [1] is greater than 100 µM; in [2], 20.9 µM; in [10], greater than 100 µM; in experiment [4], greater than 100 µM; in [5], 5.24 µM; in experiment [6] it was 7.31 µM. Also, the TGI in experiment [7] is 13.1 µM; in [8] it was greater than 100 µM; in experiment [9], greater than 100 µM.
Consider `COc1ccc(OC(=O)CC2Cc3cc(OC)c(OC)c(OC)c3-c3ccc(SC)c(=O)cc32)cc1` (stereo unspecified), for which the TGI is greater than 36 µM in experiment [1]; 0.503 µM in [2]; 14.4 µM in [4]; 13 µM in experiment [5]; greater than 100 µM in [6]; greater than 100 µM in experiment [7]. The TGI in [8] is greater than 100 µM; in [9], greater than 54.2 µM.
Turning to `COc1cc(C2(C)SCCCS2)cc(OC)c1OC`, the TGI in experiment [1], in [2], in experiment [3], in experiment [4], in experiment [5] and in experiment [6] was greater than 100 µM in each case. Moreover, the TGI in [7], in experiment [8] and in experiment [9] was greater than 100 µM each time.
For the molecule `COc1ccc(C(=O)/C=C/c2ccc(OCC#N)cc2)cc1`, the TGI in [1] is greater than 100 µM; in [2], 31.8 µM; in [10], 36.1 µM; in experiment [3] it was greater than 100 µM; in experiment [5] it was 28.4 µM; in experiment [6], 49.5 µM. In addition, the TGI was greater than 100 µM in experiment [7], 32.5 µM in experiment [8] and greater than 100 µM in experiment [9].
As to `COc1cc2ncc3c(nc4sccn43)c2cc1OC`, the GI50 is 14.6 µM in [1]; 36.8 µM in [10]; 26.8 µM in experiment [3]; 26.4 µM in [4]; 48.4 µM in experiment [5]; 12.4 µM in experiment [6]. The GI50 was 11.1 µM in experiment [7], 16.5 µM in [8] and 43.8 µM in experiment [9]. The TGI is 40.2 µM in experiment [1]; greater than 100 µM in experiment [10]; 60.5 µM in experiment [3]; 89 µM in experiment [4]; greater than 100 µM in [5]; 41.7 µM in experiment [6]. Further, the TGI in experiment [7] is 29.5 µM; in [8] it was 39.3 µM; in experiment [9], greater than 100 µM.
As for `COc1cc2c(cc1F)C(c1ccccc1Cl)=Nc1c(n[nH]c1C)N2`, the GI50 in experiment [1] was 1.82 µM; in experiment [2], 11.3 µM; in [10], 1.03 µM; in experiment [3] it was 6.76 µM; in experiment [5], 0.328 µM; in [6], 0.417 µM. The GI50 in experiment [7] was 4.02 µM; in experiment [8] it was 0.583 µM; in [9], 11.1 µM. The TGI in experiment [1] worked out at 19.3 µM; in experiment [2], 24.1 µM; in experiment [10], 20.7 µM; in experiment [3], 22.8 µM; in experiment [5], 6.51 µM; in [6], 32.8 µM. In addition, the TGI in experiment [7] is 18.3 µM; in [8], 18.3 µM; in experiment [9], 25.4 µM.
Regarding `Cc1ccc(NC(=O)C(=O)C(C(=O)/C=C/c2ccccc2)C2OC(=O)c3ccccc32)c(C)c1` (stereo unspecified), the TGI in experiment [1], in experiment [2], in experiment [3], in [4], in experiment [5] and in [6] was greater than 100 µM throughout. The TGI in [7], in [8] and in experiment [9] was greater than 100 µM throughout.
